# Measured values from PMC5728361 (Structure (London, England : 1993), 2017).
# Target: PLC-δ1 PH domain (Homo sapiens, UniProt P51178)
# Type: binding
# Details: pH 7.5
# Sequence of PLC-δ1 PH domain (P51178 21-130): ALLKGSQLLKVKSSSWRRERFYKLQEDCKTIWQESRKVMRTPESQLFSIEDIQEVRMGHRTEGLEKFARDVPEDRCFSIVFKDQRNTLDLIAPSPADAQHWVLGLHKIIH
substance,measurement,value
"L-α-phosphatidylinositol-4,5-bisphosphate [PI(4,5)P2]",PIP-binding specificity of PLC-δ1 PH domain,binding specificity
